Results reported in US11987588B2, “Modulators of the beta-3 adrenergic receptor useful for the treatment or prevention of heart failure and disorders related thereto” (Arena Pharmaceuticals, Inc., priority 2017, dated 2024).

Each compound was assayed against Beta-3 Adrenergic Receptor (Homo sapiens (Human), UniProt P13945) (assay: Homogeneous Time-Resolved Fluorescence (HTRF) cAMP antagonist assay, IC50 determination). Details: CHO-K1 cells stably expressing recombinant receptor, isoproterenol at EC90.
Chain of Beta-3 Adrenergic Receptor (P13945 whole entry, species assumed): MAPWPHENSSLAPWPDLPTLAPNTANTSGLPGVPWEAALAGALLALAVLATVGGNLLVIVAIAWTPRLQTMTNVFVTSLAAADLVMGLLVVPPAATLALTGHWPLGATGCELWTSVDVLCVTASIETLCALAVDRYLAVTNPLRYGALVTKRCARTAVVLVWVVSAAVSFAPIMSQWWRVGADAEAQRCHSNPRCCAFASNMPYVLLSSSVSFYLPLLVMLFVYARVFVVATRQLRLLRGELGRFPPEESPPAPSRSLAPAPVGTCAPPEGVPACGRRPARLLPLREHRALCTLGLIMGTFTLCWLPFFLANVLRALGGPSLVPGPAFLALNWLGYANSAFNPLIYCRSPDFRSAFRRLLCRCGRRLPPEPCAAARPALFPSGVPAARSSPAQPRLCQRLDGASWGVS
Type: cell-based
Procedure, shortened: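 In this functional readout, recombinant CHO-K1 cells received compound, then isoproterenol at its EC90. After 1 h at room temperature, cAMP levels were determined by HTRF using an on-plate standard curve, and IC50 values were fitted.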

Row | IC50 | SMILES
1 | 13.3 nM | CNS(=O)(=O)c1cccc(OC[C@@H](O)CNC2COC3(CCN(S(=O)(=O)c4cccc(-c5ccncc5)c4)CC3)C2)c1 (stereo partly drawn) [Compound 106, 3-((2S)-2-hydroxy-3-(8-(3-(pyridin-4-yl)phenylsulfonyl)-1-oxa-8-azaspiro[4.5]decan-3-ylamino)propoxy)-N-methylbenzenesulfonamide]
2 | 108 nM | CCNS(=O)(=O)c1cccc(OC[C@@H](O)CNC2COC3(CCN(S(=O)(=O)c4ccc(Cl)c5nonc45)CC3)C2)c1 (stereo partly drawn) [Compound 235, 3-((2S)-3-(8-(7-chlorobenzo[c][1,2,5]oxadiazol-4-ylsulfonyl)-1-oxa-8-azaspiro[4.5]decan-3-ylamino)-2-hydroxypropoxy)-N-ethylbenzenesulfonamide]
3 | 11 nM | CNS(=O)(=O)c1cccc(OC[C@@H](O)CN[C@@H]2COC3(CCN(S(=O)(=O)c4cc(-c5ccc(CN)cc5)ccc4OC)CC3)C2)c1 [Compound 384, 3-((S)-3-((S)-8-(4′-(aminomethyl)-4-methoxybiphenyl-3-ylsulfonyl)-1-oxa-8-azaspiro[4.5]decan-3-ylamino)-2-hydroxypropoxy)-N-methylbenzenesulfonamide]
4 | 33.5 nM | CNS(=O)(=O)c1cccc(OC[C@@H](O)CNC2COC3(CCN(S(=O)(=O)c4cccc(-c5ccc(CNCCF)cc5)c4)CC3)C2)c1 (stereo partly drawn) [Compound 347, 3-((2S)-3-(8-(4′-((2-fluoroethylamino)methyl)biphenyl-3-ylsulfonyl)-1-oxa-8-azaspiro[4.5]decan-3-ylamino)-2-hydroxypropoxy)-N-methylbenzenesulfonamide]
5 | 424 nM | CCCCCCCc1cnc(N2CCC3(CC2)C[C@@H](NC[C@H](O)COc2cccc(S(=O)(=O)NC)c2)CO3)nc1 [Compound 578, 3-((S)-3-((R)-8-(5-heptylpyrimidin-2-yl)-1-oxa-8-azaspiro[4.5]decan-3-ylamino)-2-hydroxypropoxy)-N-methylbenzenesulfonamide]
6 | 13.6 nM | CNS(=O)(=O)c1cccc(OC[C@@H](O)CNC2COC3(CCN(S(=O)(=O)c4ccc5c(Cl)cccc5c4)CC3)C2)c1 (stereo partly drawn) [Compound 223, 3-((2S)-3-(8-(5-chloronaphthalen-2-ylsulfonyl)-1-oxa-8-azaspiro[4.5]decan-3-ylamino)-2-hydroxypropoxy)-N-methylbenzenesulfonamide]
7 | 24.7 nM | CNS(=O)(=O)c1cccc(OC[C@@H](O)CN[C@H]2COC3(CCN(S(=O)(=O)c4cc(C)ccc4F)CC3)C2)c1 [Compound 269, 3-((S)-3-((R)-8-(2-fluoro-5-methylphenylsulfonyl)-1-oxa-8-azaspiro[4.5]decan-3-ylamino)-2-hydroxypropoxy)-N-methylbenzenesulfonamide]
8 | 357 nM | CNS(=O)(=O)c1cccc(OC[C@@H](O)CNC2COC3(CCN(S(=O)(=O)c4ccccc4-c4ccc(CN)cc4)CC3)C2)c1 (stereo partly drawn) [Compound 381, 3-((2S)-3-(8-(4′-(aminomethyl)biphenyl-2-ylsulfonyl)-1-oxa-8-azaspiro[4.5]decan-3-ylamino)-2-hydroxypropoxy)-N-methylbenzenesulfonamide]
9 | 32.1 nM | CNS(=O)(=O)c1cccc(OC[C@@H](O)CN[C@H]2COC3(CCN(S(=O)(=O)c4cnc5c(c4)CCCC5)CC3)C2)c1 [Compound 479, 3-((S)-2-hydroxy-3-((R)-8-(5,6,7,8-tetrahydroquinolin-3-ylsulfonyl)-1-oxa-8-azaspiro[4.5]decan-3-ylamino)propoxy)-N-methylbenzenesulfonamide]
10 | 45.7 nM | CN1CCOc2ncc(S(=O)(=O)N3CCC4(CC3)C[C@@H](NC[C@H](O)COc3cccc(S(N)(=O)=O)c3)CO4)cc21 [Compound 458, 3-((S)-2-hydroxy-3-((R)-8-(1-methyl-2,3-dihydro-1H-pyrido[2,3-b][1,4]oxazin-7-ylsulfonyl)-1-oxa-8-azaspiro[4.5]decan-3-ylamino)propoxy)benzenesulfonamide]
11 | 16.4 nM | CCNS(=O)(=O)c1cccc(OC[C@@H](O)CN[C@H]2COC3(CCN(S(=O)(=O)c4cnc5c(c4)N(C)CCO5)CC3)C2)c1 [Compound 456, N-ethyl-3-((S)-2-hydroxy-3-((R)-8-(1-methyl-2,3-dihydro-1H-pyrido[2,3-b][1,4]oxazin-7-ylsulfonyl)-1-oxa-8-azaspiro[4.5]decan-3-ylamino)propoxy)benzenesulfonamide]
12 | 472 nM | CN1CCOc2ncc(S(=O)(=O)N3CCC4(CC3)C[C@@H](NC[C@H](O)COc3cccc(S(=O)(=O)NC5CCCC5O)c3)CO4)cc21 (stereo in doubt) [Compound 437, 3-((S)-2-hydroxy-3-((R)-8-(1-methyl-2,3-dihydro-1H-pyrido[2,3-b][1,4]oxazin-7-ylsulfonyl)-1-oxa-8-azaspiro[4.5]decan-3-ylamino)propoxy)-N-((1R,2S)-2-hydroxycyclopentyl)benzenesulfonamide]
13 | 53 nM | CCn1cc(S(=O)(=O)N2CCC3(CC2)C[C@@H](NC[C@H](O)COc2cccc(S(=O)(=O)NC)c2)CO3)c(=O)c2ccc(F)cc21 [Compound 546, 3-((S)-3-((R)-8-(1-ethyl-7-fluoro-4-oxo-1,4-dihydroquinolin-3-ylsulfonyl)-1-oxa-8-azaspiro[4.5]decan-3-ylamino)-2-hydroxypropoxy)-N-methylbenzenesulfonamide]
14 | 32.7 nM | CNS(=O)(=O)c1cccc(OC[C@@H](O)CN[C@H]2COC3(CCN(S(=O)(=O)c4cn(CC(=O)O)c5ccccc5c4=O)CC3)C2)c1 [Compound 544, 2-(3-((R)-3-((S)-2-hydroxy-3-(3-(N-methylsulfamoyl)phenoxy)propylamino)-1-oxa-8-azaspiro[4.5]decan-8-ylsulfonyl)-4-oxoquinolin-1(4H)-yl)acetic acid]
15 | 57.9 nM | CNS(=O)(=O)c1cccc(OC[C@@H](O)CNC2COC3(CCN(S(=O)(=O)c4cncc(OC)c4)CC3)C2)c1 (stereo partly drawn) [Compound 386, 3-((2S)-2-hydroxy-3-(8-(5-methoxypyridin-3-ylsulfonyl)-1-oxa-8-azaspiro[4.5]decan-3-ylamino)propoxy)-N-methylbenzenesulfonamide]
16 | 23.8 nM | CNS(=O)(=O)c1cccc(OC[C@@H](O)CNC2COC3(CCN(S(=O)(=O)c4ccc(OC(C)C)cc4)CC3)C2)c1 (stereo partly drawn) [Compound 137, 3-((2S)-2-hydroxy-3-(8-(4-isopropoxyphenylsulfonyl)-1-oxa-8-azaspiro[4.5]decan-3-ylamino)propoxy)-N-methylbenzenesulfonamide]
17 | 22.2 nM | CNS(=O)(=O)c1cccc(OC[C@@H](O)CN[C@H]2COC3(CCN(S(=O)(=O)c4cnc5[nH]c(=O)n(C)c5c4)CC3)C2)c1 [Compound 522, 3-((S)-2-hydroxy-3-((R)-8-(1-methyl-2-oxo-2,3-dihydro-1H-imidazo[4,5-b]pyridin-6-ylsulfonyl)-1-oxa-8-azaspiro[4.5]decan-3-ylamino)propoxy)-N-methylbenzenesulfonamide]
18 | 21.1 nM | CCCNS(=O)(=O)c1cccc(OC[C@@H](O)CNC2COC3(CCN(S(=O)(=O)c4ccc5ccccc5c4)CC3)C2)c1 (stereo partly drawn) [Compound 2, 3-((2S)-2-hydroxy-3-(8-(naphthalen-2-ylsulfonyl)-1-oxa-8-azaspiro[4.5]decan-3-ylamino)propoxy)-N-propylbenzenesulfonamide]
19 | 4.89 nM | CNS(=O)(=O)c1cccc(OC[C@@H](O)CN[C@H]2COC3(CCN(S(=O)(=O)c4cnc5[nH]cc(Cl)c5c4)CC3)C2)c1 [Compound 510, 3-((S)-3-((R)-8-(3-chloro-1H-pyrrolo[2,3-b]pyridin-5-ylsulfonyl)-1-oxa-8-azaspiro[4.5]decan-3-ylamino)-2-hydroxypropoxy)-N-methylbenzenesulfonamide]
